From ChEMBL document CHEMBL3046276, “Preparation and activity study of new organophosphate insecticide candidates” (J Pestic Sci, 2011) come the findings set out here.

≈ marks a conversion by molar mass, not a printed value.

One data set has as its system Chilo suppressalis. Nature of the data set: Insecticidal activity against Chilo suppressalis (rice stem borer) fed on compound pre-treated rice leaves assessed as insect mortality measured after 3 days by leaf-dipping method. It counts as functional.
For another data set, the system named is Cnaphalocrocis medinalis. The data set is described as follows: Insecticidal activity against Cnaphalocrocis medinalis fed on compound pre-treated corn leaves assessed as insect mortality measured after 3 days by leaf-dipping method. It counts as functional.
A short description of data set [1]: Toxicity in Rattus norvegicus Sprague-Dawley (rat) assessed as mortality measured after 24 hr administered orally through force feeding method. The class given is organism-based. As to conditions: in vivo, po.
The test system of data set [2] is Helicoverpa zea. The data set is described as follows: Insecticidal activity against Helicoverpa zea (corn earworm) fed on compound pre-treated cabbage leaves assessed as insect mortality measured after 24 hr by leaf-dipping method. The class given is functional.
Data set [3] deals with Helicoverpa zea. The data set is described as follows: Insecticidal activity against Helicoverpa zea (corn earworm) fed on compound pre-treated cabbage leaves assessed as insect mortality measured after 48 hr by leaf-dipping method. It counts as functional.
The next data set has as its system Apolygus lucorum. Nature of the data set: Insecticidal activity against Apolygus lucorum after 24 hr by larvae-dipping method. The class given is functional.
The subject of the next data set is Ostrinia furnacalis. Nature of the data set: Insecticidal activity against Ostrinia furnacalis (Asian corn borer) after 24 hr by larvae-dipping method. It counts as functional.
Another data set has as its system Pieris rapae. The data set is described as follows: Insecticidal activity against Pieris rapae after 24 hr by larvae-dipping method. It counts as functional.

On to `CCOP(=S)(OCC)Oc1nc(Cl)c(Cl)cc1Cl` [CHLORPYRIFOS], for which the LC50 (in general, the concentration that kills 50% of the test population) in the data set with Chilo suppressalis came out at 2.61 µg/mL (≈ 7.44 µM); in the data set on Cnaphalocrocis medinalis, 13.9 µg/mL (≈ 39.6 µM); in the data set with Helicoverpa zea [2] it was 390 µg/mL (≈ 1110 µM); with Helicoverpa zea [3], 63.9 µg/mL (≈ 182 µM). In addition, the LD50 at 24 h in data set [1] came to 163 mg/kg.

For `CCOP(=S)(OC)Oc1nc(Cl)c(Cl)cc1Cl` (racemic), the median lethal concentration (LC50) with Chilo suppressalis was determined as 0.27 µg/mL (≈ 0.802 µM); with Cnaphalocrocis medinalis, 1.06 µg/mL (≈ 3.15 µM); in the data set on Helicoverpa zea [2], 94.4 µg/mL (≈ 280 µM); with Helicoverpa zea [3] it was 46.3 µg/mL (≈ 138 µM). The LD50 at 24 h in data set [1] was found to be 147 mg/kg.

On to `CCOP(=S)(OCC)O/N=C(\C#N)c1ccccc1` [PHOXIM], for which the LD50 at 24 h in data set [1] came out at 1200 mg/kg. The LC50 came out at 0.00789 µg/mL (≈ 0.0264 µM) with Apolygus lucorum, 0.0853 µg/mL (≈ 0.286 µM) in the data set on Ostrinia furnacalis and 0.0088 µg/mL (≈ 0.0295 µM) in the data set on Pieris rapae.

Regarding `CCOP(=S)(OC)O/N=C(\C#N)c1ccccc1` (racemic), in data set [1], the LD50 at 24 h was 1260 mg/kg. The LC50 in the data set on Apolygus lucorum is 0.00568 µg/mL (≈ 0.02 µM); in the data set with Ostrinia furnacalis it was 0.0698 µg/mL (≈ 0.246 µM); with Pieris rapae it was 0.00734 µg/mL (≈ 0.0258 µM).
